According to patent US9840467B2, “Arylhydrazides containing a 2-pyridone moiety as selective antibacterial agents” (ABAC THERAPEUTICS, S.L., priority 2014, dated 2017):
Converted amounts (≈) assume the structure as drawn. Read-outs that look alike come from different tables or passages of the source.

What was measured:
E. faecium = assay: MIC, CLSI microtiter dilution, E. faecium; type: cell-based, Enterococcus faecium
Protocol: (§1) The products of the present invention were tested for their activity against A. baumannii as well as against the following bacteria: Staphylococcus aureus (S. aureus), Streptococcus pneumoniae (S. pneumoniae), Enterococcus faecium (E. faecium), Pseudomonas aeruginosa (P. aeruginosa), Klebsiella pneumoniae (K. pneumoniae.), Enterobacter aerogenes (E. aerogenes) and Escherichia coli (E. coli).
(§2) Minimal inhibitory concentrations (MICs) were determined using a standard microtiter dilution method, according to the Clinical and Laboratory Standards Institute (CLSI) procedures, in particular according to M07-A9: “Methods for Dilution Antimicrobial Susceptibility Tests for Bacteria That Grow Aerobically; Approved Standard—Ninth Edition”.
(§3) Briefly, compounds were dissolved with dimethyl sulfoxide (DMSO) at 12.8 mg/mL. Serial two-fold dilutions of compounds were performed in DMSO and 1 μl of each dilution were transferred into microtiter culture plates, followed by 100 μl of inoculated culture media to give a final microorganism concentration of 5×10^5 colony-forming units/mL. Plates were incubated at 37° C. for 24 hours and MICs determined as the lowest compound concentration that inhibited growth. Media used in determinations were Cation adjusted Mueller-Hinton Broth for all the microorganisms except for S. pneumoniae and E. faecium whose culture media were supplemented with 2.5% of lysed horse blood. Incubations were performed at air atmosphere except S. pneumoniae cultures that were incubated with 5% CO2 atmosphere.

E. aerogenes = assay: MIC, CLSI microtiter dilution, E. aerogenes; type: cell-based, Enterobacter aerogenes
Protocol: as §1, §2, §3

K. pneumoniae = assay: MIC, CLSI microtiter dilution, K. pneumoniae; type: cell-based, Klebsiella pneumoniae
Protocol: as §1, §2, §3

S. pneumoniae = assay: MIC, CLSI microtiter dilution, S. pneumoniae; type: cell-based, Streptococcus pneumoniae
Protocol: as §1, §2, §3

E. coli = assay: MIC, CLSI microtiter dilution, E. coli; type: cell-based, Escherichia coli
Protocol: as §1, §2, §3

P. aeruginosa = assay: MIC, CLSI microtiter dilution, P. aeruginosa; type: cell-based, Pseudomonas aeruginosa
Protocol: as §1, §2, §3

S. aureus = assay: MIC, CLSI microtiter dilution, S. aureus; type: cell-based, Staphylococcus aureus
Protocol: as §1, §2, §3

A. baumannii = assay: MIC, CLSI microtiter dilution, A. baumannii; type: cell-based, Acinetobacter baumannii
Protocol: as §1, §2, §3

[1] = Enterococcus faecium, E. faecium, 37° C., 24 hours, 2.5% lysed horse blood, read-out: MIC
[2] = Klebsiella aerogenes, E. aerogenes, 37° C., 24 hours, Cation adjusted Mueller-Hinton Broth, read-out: MIC
[3] = Klebsiella pneumoniae, K. pneumoniae, 37° C., 24 hours, Cation adjusted Mueller-Hinton Broth, read-out: MIC
[4] = Streptococcus pneumoniae, S. pneumoniae, 37° C., 24 hours, 2.5% lysed horse blood, 5% CO2, read-out: MIC
[5] = Escherichia coli, E. coli, 37° C., 24 hours, Cation adjusted Mueller-Hinton Broth, read-out: MIC
[6] = Pseudomonas aeruginosa, P. aeruginosa, 37° C., 24 hours, Cation adjusted Mueller-Hinton Broth, read-out: MIC
[7] = Staphylococcus aureus, S. aureus, 37° C., 24 hours, Cation adjusted Mueller-Hinton Broth, read-out: MIC
[8] = Acinetobacter baumannii, A. baumannii, 37° C., 24 hours, Cation adjusted Mueller-Hinton Broth, read-out: MIC

Row | Compound | MIC (E. faecium; Enterococcus faecium, 24 h) | MIC (E. aerogenes; Klebsiella aerogenes, 24 h) | MIC (K. pneumoniae; Klebsiella pneumoniae, 24 h) | MIC (S. pneumoniae; Streptococcus pneumoniae, 24 h) | MIC (E. coli; Escherichia coli, 24 h) | MIC (P. aeruginosa; Pseudomonas aeruginosa, 24 h) | MIC (S. aureus; Staphylococcus aureus, 24 h) | MIC (A. baumannii; Acinetobacter baumannii, 24 h) | further results
1 | 1-Cyclopropylmethyl-6-oxo-1,6-dihydro-pyridine-2-carboxylic acid N′-(4-fluorophenyl)-hydrazide [Ex. 6] |  |  |  |  |  |  |  |  | MIC (E. faecium; E. faecium, 37° C., 24 hours, 2.5% lysed horse blood): >128 µg/mL; MIC (E. aerogenes; E. aerogenes, 37° C., 24 hours, Cation adjusted Mueller-Hinton Broth): >128 µg/mL; MIC (K. pneumoniae; K. pneumoniae, 37° C., 24 hours, Cation adjusted Mueller-Hinton Broth): >128 µg/mL; MIC (S. pneumoniae; S. pneumoniae, 37° C., 24 hours, 2.5% lysed horse blood, 5% CO2): >128 µg/mL; MIC (E. coli; E. coli, 37° C., 24 hours, Cation adjusted Mueller-Hinton Broth): >128 µg/mL; MIC (P. aeruginosa; P. aeruginosa, 37° C., 24 hours, Cation adjusted Mueller-Hinton Broth): >128 µg/mL; MIC (S. aureus; S. aureus, 37° C., 24 hours, Cation adjusted Mueller-Hinton Broth): >128 µg/mL; MIC (A. baumannii; A. baumannii, 37° C., 24 hours, Cation adjusted Mueller-Hinton Broth): <0.25 µg/mL
2 | Cn1c(C(=O)NNc2ccc(F)cc2)cccc1=O [Ex. 1, 1-Methyl-6-oxo-1,6-dihydro-pyridine-2-carboxylic acid N′-(4-fluoro-phenyl)-hydrazide] |  |  |  |  |  |  |  |  | MIC (E. faecium; [1]): > 128 µg/mL; MIC (E. aerogenes; [2]): > 128 µg/mL; MIC (K. pneumoniae; [3]): > 128 µg/mL; MIC (S. pneumoniae; [4]): > 128 µg/mL; MIC (E. coli; [5]): 64 µg/mL (≈ 245 µM); MIC (P. aeruginosa; [6]): > 128 µg/mL; MIC (S. aureus; [7]): > 128 µg/mL; MIC (A. baumannii; [8]): 0.5 µg/mL (≈ 1.91 µM)
3 | CCn1c(C(=O)NNc2ccc(F)cc2)cccc1=O [Ex. 2, 1-Ethyl-6-oxo-1,6-dihydro-pyridine-2-carboxylic acid N′-(4-fluoro-phenyl)-hydrazide] | > 128 µg/mL | > 128 µg/mL | > 128 µg/mL | > 128 µg/mL | > 128 µg/mL | > 128 µg/mL | > 128 µg/mL | 1 µg/mL (≈ 3.63 µM) | 
4 | COCCn1c(C(=O)NNc2ccc(F)cc2)cccc1=O [Ex. 3, 1-(2-methoxyethyl)-6-oxo-1,6-dihydro-pyridine-2-carboxylic acid N′-(4-fluorophenyl)-hydrazide] | > 128 µg/mL | > 128 µg/mL | > 128 µg/mL | > 128 µg/mL | > 128 µg/mL | > 128 µg/mL | > 128 µg/mL | < 0.25 µg/mL | 
5 | O=C(NNc1ccc(F)cc1)c1cccc(=O)n1C(F)F [Ex. 4, 1-Difluoromethyl-6-oxo-1,6-dihydro-pyridine-2-carboxylic acid N′-(4-fluorophenyl)-hydrazide] |  |  |  |  |  |  |  |  | MIC (E. faecium; [1]): > 128 µg/mL; MIC (E. aerogenes; [2]): > 128 µg/mL; MIC (K. pneumoniae; [3]): > 128 µg/mL; MIC (S. pneumoniae; [4]): > 128 µg/mL; MIC (E. coli; [5]): > 128 µg/mL; MIC (P. aeruginosa; [6]): > 128 µg/mL; MIC (S. aureus; [7]): > 128 µg/mL; MIC (A. baumannii; [8]): 1 µg/mL (≈ 3.36 µM)
6 | O=C(NNc1ccc(F)cc1)c1cccc(=O)n1Cc1ccccc1 [Ex. 5, 1-Benzyl-6-oxo-1,6-dihydro-pyridine-2-carboxylic acid N′-(4-fluorophenyl)-hydrazide] |  |  |  |  |  |  |  |  | MIC (E. faecium; [1]): > 128 µg/mL; MIC (E. aerogenes; [2]): > 128 µg/mL; MIC (K. pneumoniae; [3]): > 128 µg/mL; MIC (S. pneumoniae; [4]): > 128 µg/mL; MIC (E. coli; [5]): > 128 µg/mL; MIC (P. aeruginosa; [6]): > 128 µg/mL; MIC (S. aureus; [7]): > 128 µg/mL; MIC (A. baumannii; [8]): 0.25 µg/mL (≈ 0.741 µM)
7 | C#CCn1c(C(=O)NNc2ccc(F)cc2)cccc1=O [Ex. 7, 1-(Prop-2-yn-1-yl)-6-oxo-1,6-dihydropyridine-2-carboxylic acid N′-(4-fluorophenyl)-hydrazide] | > 128 µg/mL | > 128 µg/mL | > 128 µg/mL | > 128 µg/mL | > 128 µg/mL | > 128 µg/mL | > 128 µg/mL | 0.25 µg/mL (≈ 0.876 µM) | 
8 | O=C(NNc1ccc(F)cc1)c1cccc(=O)n1CC(F)(F)F [Ex. 8, 6-Oxo-1-(2,2,2-trifluoroethyl)-1,6-dihydropyridine-2-carboxylic acid N′-(4-fluorophenyl)-hydrazide] | > 128 µg/mL | > 128 µg/mL | > 128 µg/mL | > 128 µg/mL | > 128 µg/mL | > 128 µg/mL | > 128 µg/mL | 0.25 µg/mL (≈ 0.759 µM) | 
9 | COc1ccc(NNC(=O)c2cccc(=O)n2C)cc1 [Ex. 9, 1-Methyl-6-oxo-1,6-dihydropyridine-2-carboxylic acid N′-(4-methoxyphenyl)-hydrazide] | > 128 µg/mL | > 128 µg/mL | > 128 µg/mL | > 128 µg/mL | > 128 µg/mL | > 128 µg/mL | > 128 µg/mL | 0.25 µg/mL (≈ 0.915 µM) | 
10 | Cn1c(C(=O)NNc2ccc(Cl)cc2)cccc1=O [Ex. 10, 1-Methyl-6-oxo-1,6-dihydropyridine-2-carboxylic acid N′-(4-chlorophenyl)-hydrazide] | > 128 µg/mL | > 128 µg/mL | > 128 µg/mL | > 128 µg/mL | > 128 µg/mL | > 128 µg/mL | > 128 µg/mL | 0.25 µg/mL (≈ 0.9 µM) | 
11 | Cc1ccc(NNC(=O)c2cccc(=O)n2C)cc1 [Ex. 11, 1-Methyl-6-oxo-1,6-dihydropyridine-2-carboxylic acid N′-(4-methylphenyl)-hydrazide] | > 128 µg/mL | > 128 µg/mL | > 128 µg/mL | > 128 µg/mL | > 128 µg/mL | > 128 µg/mL | > 128 µg/mL | 0.5 µg/mL (≈ 1.94 µM) | 
12 | Cn1c(C(=O)NNc2ccc(F)cc2F)cccc1=O [Ex. 12, 1-Methyl-6-oxo-1,6-dihydropyridine-2-carboxylic acid N′-(2,4-difluorophenyl)-hydrazide] | > 128 µg/mL | > 128 µg/mL | > 128 µg/mL | > 128 µg/mL | > 128 µg/mL | > 128 µg/mL | > 128 µg/mL | 0.25 µg/mL (≈ 0.895 µM) | 
13 | Cn1c(C(=O)NNc2c(F)cccc2F)cccc1=O [Ex. 13, 1-Methyl-6-oxo-1,6-dihydropyridine-2-carboxylic acid N′-(2,6-difluorophenyl)-hydrazide] | > 128 µg/mL | > 128 µg/mL | > 128 µg/mL | > 128 µg/mL | > 128 µg/mL | > 128 µg/mL | > 128 µg/mL | 0.5 µg/mL (≈ 1.79 µM) | 
14 | CN(C)C(=O)Cn1c(C(=O)NNc2ccc(F)cc2)cccc1=O [Ex. 14, 1-(2-(Dimethylamino)-2-oxoethyl)-6-oxo-1,6-dihydropyridine-2-carboxylic acid N′-(4-fluorophenyl)-hydrazide] | > 128 µg/mL | > 128 µg/mL | > 128 µg/mL | > 128 µg/mL | > 128 µg/mL | > 128 µg/mL | > 128 µg/mL | 0.25 µg/mL (≈ 0.752 µM) | 
15 | NC(=O)Cn1c(C(=O)NNc2ccc(F)cc2)cccc1=O [Ex. 15, 1-(2-Amino-2-oxoethyl)-6-oxo-1,6-dihydropyridine-2-carboxylic acid N′-(4-fluorophenyl)-hydrazide] | > 128 µg/mL | > 128 µg/mL | > 128 µg/mL | > 128 µg/mL | > 128 µg/mL | > 128 µg/mL | > 128 µg/mL | 0.5 µg/mL (≈ 1.64 µM) | 
